Consider one molecule from PMC3277506, “Extra-Renal Elimination of Uric Acid via Intestinal Efflux Transporter BCRP/ABCG2” (PLoS ONE, 2012).

One data set concerns the target T1, hMRP2 (Homo sapiens, UniProt Q92887).
T1 construct: purchased GenoMembrane Inc. (Yokohama, Japan); host or cells: Sf9 cells
Kind of data set: [14C]uric acid uptake by hMRP2-expressing membrane vesicles. Format: biochemical. The note with it: [14C]uric acid 20 µM, 5 min, 37°C, 4 mM ATP or AMP. How it is done:
(§1) hBCRP/rBcrp, hMRP2/rMrp2, or hMDR1-expressing membrane vesicles prepared from Sf9 cells were purchased from GenoMembrane Inc. (Yokohama, Japan). Uptake experiments were conducted as described previously. Briefly, after a pre-incubation for 5 min at 37°C, membrane vesicles (50 µg protein/50 µL final reaction volume) were incubated for 5 min at 37°C in the presence of 4 mM ATP or AMP in assay buffer (1 M KCl, 1 M MgCl2, and 100 mM MOPS-Tris, pH 7.0) containing [^14C]uric acid (1 µCi/mL). The uptake reaction was terminated by adding 1 mL ice-cold washing buffer (1 M KCl, and 100 mM MOPS-Tris, pH 7.0) to the membrane solution, and the mixture was rapidly filtered through a nitrocellulose filter (0.45 µm pore size, Millipore, Bedford, MA). The filters were washed twice with 5 mL ice-cold washing buffer. The filters were dried and dissolved in Clearsol-I for quantitation of radioactivity.

A short description of data set [1]: Intestinal secretion of endogenous uric acid, in situ intestinal closed loop method, oxonate-treated rats. To be noted: 60 min, no inhibitor. Format: in vivo, rat. How it is done: We evaluated intestinal secretion of endogenous uric acid according to the method described previously, with some modifications. Rats were anesthetized with 50% urethane and treated with oxonate by the same method as in the in vivo animal study described above. Intestinal closed loops were made at different segments: jejunum (10 cm), ileum (10 cm), and colon (3–5 cm). Phosphate-buffered solution (PB, 0.075 M NaH2PO4 - 0.075 M Na2HPO4, pH 6.5) or inhibitor-containing PB was injected into the intestinal loop. After 60 min, the remaining luminal content in each loop was washed out and collected for quantitation. Blood was obtained from the jugular vein at 1, 20, 40 and 60 min. Plasma was obtained by centrifugation and used for quantitation.
(§2) The following equation was used to calculate intestinal secretory clearance (µL/min/cm loop) and estimated total intestinal secretory clearance (CLintestine, estimated) (mL/min): [drawing 1] [drawing 2] [drawing 3] where A is the amount of uric acid secreted into the intestinal lumen of each loop for 60 min, L is the length of the intestine, and AUC is area under the plasma concentration-time curve.

Another data set concerns the target T2, hMDR1 (Homo sapiens, UniProt P08183).
T2 construct: purchased GenoMembrane Inc. (Yokohama, Japan); host or cells: Sf9 cells
Kind of data set: [14C]uric acid uptake by hMDR1-expressing membrane vesicles. Type of data set: biochemical. The note with it: [14C]uric acid 20 µM, 5 min, 37°C, 4 mM ATP or AMP. How it is done:
as §1

Data set [2] is described as follows: Recovery of [14C]uric acid after intravenous administration in oxonate-treated rats. Format: in vivo. To be noted: percentage of dose; for dose excreted: male, Wistar, rat, iv, 2 µCi/rat. How it is done:
(§3) Male Wistar rats (280±30 g body weight) used in the present study were treated with potassium oxonate, a uric acid oxidase (uricase) inhibitor. Oxonate-treated rats were established as described previously, [48]. Briefly, rats were anesthetized with 50% urethane (2 mL/kg) and infused with 0.9% NaCl, 0.5% oxonate and 4% mannitol solution from the femoral vein at the flow rate of 3 mL/hr. As a bolus, 0.9% NaCl, 1.5% oxonate and 4% mannitol solution was administered from the jugular vein at 6 mL/kg. After equilibration for 80 min, blood, urine and bile samples were collected at 20-min intervals. When [^14C]uric acid (2 µCi/rat) was used, it was intravenously injected from the jugular vein after oxonate treatment for 80 min. In order to suppress the uricolysis of [^14C]uric acid by intestinal flora, animals received orally non-absorbed antibiotics, polymyxin B, kanamycin, and vancomycin at daily doses of 50, 50 and 20 mg/kg, respectively, for 7 days before this animal study. Urine and bile were collected at 20-min intervals, and blood samples were drawn at 1, 5, 10, 20, 40, 60, 80, 100 and 120 min. Urine and bile were collected from bladder and bile ducts, respectively, and blood from the jugular vein. In mice, urine was collected for 24 hours by using metabolic cages (Natsume, Tokyo, Japan).

The target of another data set is T3, rMrp2 (Rattus norvegicus, UniProt Q63120).
T3 construct: purchased GenoMembrane Inc. (Yokohama, Japan); host or cells: Sf9 cells
Kind of data set: [14C]uric acid uptake by rMrp2-expressing membrane vesicles. Format: biochemical. To be noted: [14C]uric acid 20 µM, 5 min, 37°C, 4 mM ATP or AMP. How it is done:
as §1

The nature of data set [3]: Clearance of endogenous uric acid (urine, bile, estimated intestine) in oxonate-treated rats. Type of data set: in vivo, rat. How it is done:
as §3, §2
Concentrations of uric acid in plasma, urine, bile, and intestinal content were analyzed by means of HPLC. Briefly, 80 µL 0.41% HClO4 was added to 40 µL of sample and mixed well. The sample was kept 4°C for 30 min. An aliquot was centrifuged at 15,000 rpm for 5 min at 4°C to separate denatured proteins. […] Uric acid was detected at 284 nm. […]

A further data set addresses T4, rMdr1a (Rattus norvegicus, UniProt Q6PSM0).
T4 construct: expressed in transfected cells; host or cells: LLC-PK1 cells
Kind of data set: Bidirectional transport of uric acid in LLC-PK1 cells expressing rMdr1a. To be noted: data not shown. Type of data set: in vitro ADME.

Where “and” joins values, the source holds several entries; their conditions need not be identical. Equal values may be shown once. Read-outs that look alike come from different tables or passages of the source.

T3 sequence (Q63120 whole entry): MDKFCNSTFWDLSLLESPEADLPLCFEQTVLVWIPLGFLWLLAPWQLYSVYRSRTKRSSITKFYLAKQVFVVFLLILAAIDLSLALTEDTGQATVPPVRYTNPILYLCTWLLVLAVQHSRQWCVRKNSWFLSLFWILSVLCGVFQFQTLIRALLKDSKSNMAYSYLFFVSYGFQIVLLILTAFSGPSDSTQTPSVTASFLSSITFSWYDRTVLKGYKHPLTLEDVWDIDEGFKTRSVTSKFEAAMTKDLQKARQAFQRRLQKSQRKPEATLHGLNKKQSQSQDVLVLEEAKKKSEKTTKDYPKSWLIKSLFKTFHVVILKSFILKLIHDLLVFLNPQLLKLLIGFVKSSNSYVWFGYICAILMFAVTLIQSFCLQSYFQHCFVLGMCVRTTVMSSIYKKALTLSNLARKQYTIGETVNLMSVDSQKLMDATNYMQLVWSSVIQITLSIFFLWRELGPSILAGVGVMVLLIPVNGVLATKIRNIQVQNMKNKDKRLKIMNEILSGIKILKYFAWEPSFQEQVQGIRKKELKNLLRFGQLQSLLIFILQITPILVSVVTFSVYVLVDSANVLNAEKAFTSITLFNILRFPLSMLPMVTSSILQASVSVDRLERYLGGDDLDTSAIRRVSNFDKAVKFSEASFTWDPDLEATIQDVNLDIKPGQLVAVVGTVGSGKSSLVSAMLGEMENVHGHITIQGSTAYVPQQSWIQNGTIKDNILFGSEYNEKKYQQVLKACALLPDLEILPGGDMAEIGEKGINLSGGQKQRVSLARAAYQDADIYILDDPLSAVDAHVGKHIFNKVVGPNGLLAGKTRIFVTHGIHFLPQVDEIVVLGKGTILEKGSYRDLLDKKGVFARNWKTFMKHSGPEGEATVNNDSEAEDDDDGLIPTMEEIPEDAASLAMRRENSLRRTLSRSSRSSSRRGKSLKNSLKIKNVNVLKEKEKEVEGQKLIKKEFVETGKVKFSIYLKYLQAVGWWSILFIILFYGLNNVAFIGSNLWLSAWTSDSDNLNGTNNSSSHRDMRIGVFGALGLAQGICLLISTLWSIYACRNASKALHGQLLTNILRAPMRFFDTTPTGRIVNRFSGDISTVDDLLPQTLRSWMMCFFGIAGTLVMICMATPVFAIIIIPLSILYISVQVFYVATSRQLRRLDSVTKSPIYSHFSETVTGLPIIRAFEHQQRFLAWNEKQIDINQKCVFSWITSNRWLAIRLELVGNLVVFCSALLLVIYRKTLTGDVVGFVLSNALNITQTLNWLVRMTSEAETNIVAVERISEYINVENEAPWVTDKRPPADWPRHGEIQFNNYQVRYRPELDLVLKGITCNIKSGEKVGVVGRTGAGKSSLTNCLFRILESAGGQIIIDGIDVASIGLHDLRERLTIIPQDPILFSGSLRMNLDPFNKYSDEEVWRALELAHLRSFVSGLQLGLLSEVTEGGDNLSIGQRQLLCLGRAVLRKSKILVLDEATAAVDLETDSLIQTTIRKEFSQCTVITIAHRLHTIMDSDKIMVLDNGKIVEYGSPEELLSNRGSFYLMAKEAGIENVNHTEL
T2 sequence (P08183 whole entry): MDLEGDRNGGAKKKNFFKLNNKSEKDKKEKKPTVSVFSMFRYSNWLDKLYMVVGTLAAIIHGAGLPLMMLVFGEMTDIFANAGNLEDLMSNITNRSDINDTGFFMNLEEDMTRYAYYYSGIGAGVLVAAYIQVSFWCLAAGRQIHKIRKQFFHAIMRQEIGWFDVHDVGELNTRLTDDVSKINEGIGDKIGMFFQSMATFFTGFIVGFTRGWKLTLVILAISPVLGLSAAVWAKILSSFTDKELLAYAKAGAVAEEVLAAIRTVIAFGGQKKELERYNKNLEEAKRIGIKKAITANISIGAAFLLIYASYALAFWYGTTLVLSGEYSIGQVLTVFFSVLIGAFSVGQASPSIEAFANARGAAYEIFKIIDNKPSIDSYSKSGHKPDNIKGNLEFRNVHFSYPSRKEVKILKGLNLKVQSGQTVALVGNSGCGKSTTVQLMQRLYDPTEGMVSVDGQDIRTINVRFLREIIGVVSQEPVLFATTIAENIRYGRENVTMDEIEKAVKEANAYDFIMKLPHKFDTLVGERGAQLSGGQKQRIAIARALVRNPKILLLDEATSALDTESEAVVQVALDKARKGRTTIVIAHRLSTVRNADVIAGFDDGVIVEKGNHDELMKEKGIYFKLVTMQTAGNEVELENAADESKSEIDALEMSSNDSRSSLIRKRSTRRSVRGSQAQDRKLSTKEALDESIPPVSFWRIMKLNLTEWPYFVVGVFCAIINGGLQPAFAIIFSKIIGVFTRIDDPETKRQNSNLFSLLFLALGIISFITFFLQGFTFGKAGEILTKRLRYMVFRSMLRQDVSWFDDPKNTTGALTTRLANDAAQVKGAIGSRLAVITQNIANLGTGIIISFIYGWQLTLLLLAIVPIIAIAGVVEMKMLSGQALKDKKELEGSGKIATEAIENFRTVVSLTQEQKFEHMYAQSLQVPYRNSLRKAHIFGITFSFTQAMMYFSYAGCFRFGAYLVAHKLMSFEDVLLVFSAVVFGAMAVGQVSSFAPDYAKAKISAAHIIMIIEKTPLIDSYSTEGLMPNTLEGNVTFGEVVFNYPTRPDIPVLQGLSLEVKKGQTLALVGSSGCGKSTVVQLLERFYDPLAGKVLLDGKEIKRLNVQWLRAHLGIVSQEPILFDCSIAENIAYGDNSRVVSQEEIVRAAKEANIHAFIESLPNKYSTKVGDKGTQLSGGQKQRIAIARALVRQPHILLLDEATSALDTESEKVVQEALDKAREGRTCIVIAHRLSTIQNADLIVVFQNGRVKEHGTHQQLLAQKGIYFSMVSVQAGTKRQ
T4 sequence (Q6PSM0 1-1272): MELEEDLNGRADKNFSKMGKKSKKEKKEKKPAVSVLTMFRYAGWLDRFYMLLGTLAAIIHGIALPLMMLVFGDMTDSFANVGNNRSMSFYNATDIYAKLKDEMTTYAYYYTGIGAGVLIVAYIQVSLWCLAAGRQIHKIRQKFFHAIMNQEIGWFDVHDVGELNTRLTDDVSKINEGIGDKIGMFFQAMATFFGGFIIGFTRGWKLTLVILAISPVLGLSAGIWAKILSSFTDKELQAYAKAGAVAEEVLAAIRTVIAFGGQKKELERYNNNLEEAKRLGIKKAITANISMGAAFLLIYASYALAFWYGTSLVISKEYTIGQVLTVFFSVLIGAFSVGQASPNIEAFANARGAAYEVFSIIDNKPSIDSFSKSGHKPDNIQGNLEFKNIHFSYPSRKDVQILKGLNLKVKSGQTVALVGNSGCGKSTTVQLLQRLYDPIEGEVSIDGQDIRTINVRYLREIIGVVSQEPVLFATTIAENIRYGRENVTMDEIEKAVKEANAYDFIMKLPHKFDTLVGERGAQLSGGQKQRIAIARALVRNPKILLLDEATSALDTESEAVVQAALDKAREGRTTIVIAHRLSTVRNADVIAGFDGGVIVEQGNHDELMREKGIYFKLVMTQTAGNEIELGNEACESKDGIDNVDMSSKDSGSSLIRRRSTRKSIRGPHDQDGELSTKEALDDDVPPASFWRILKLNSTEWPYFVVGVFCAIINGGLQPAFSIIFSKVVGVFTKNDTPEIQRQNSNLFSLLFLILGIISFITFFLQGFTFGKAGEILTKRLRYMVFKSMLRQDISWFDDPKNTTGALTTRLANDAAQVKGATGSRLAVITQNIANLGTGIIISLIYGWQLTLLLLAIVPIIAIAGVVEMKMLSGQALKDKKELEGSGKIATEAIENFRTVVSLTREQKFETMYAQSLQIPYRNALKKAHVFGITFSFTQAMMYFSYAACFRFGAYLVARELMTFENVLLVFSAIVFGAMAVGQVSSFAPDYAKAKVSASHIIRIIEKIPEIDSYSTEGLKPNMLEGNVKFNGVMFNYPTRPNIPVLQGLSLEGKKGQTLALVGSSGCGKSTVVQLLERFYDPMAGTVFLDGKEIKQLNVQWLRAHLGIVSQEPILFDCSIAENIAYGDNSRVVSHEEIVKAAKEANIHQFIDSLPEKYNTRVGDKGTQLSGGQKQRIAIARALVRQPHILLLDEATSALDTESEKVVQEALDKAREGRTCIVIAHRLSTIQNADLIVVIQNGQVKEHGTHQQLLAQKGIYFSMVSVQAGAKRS

For `O=c1[nH]c(=O)c2[nH]c(=O)[nH]c2[nH]1` [uric acid], the “ATP-dependent uric acid uptake” value on hMRP2 is “inactive”; on hMDR1 it was “inactive”; on rMrp2, “Slight”. The results for the “Intestinal secretion clearance of endogenous uric acid” value in data set [1] (colon closed loop), in data set [1] (ileum closed loop) and in data set [1] (jejunum closed loop) were 0.76±0.17 µL/min/cm loop, 1.58±0.13 µL/min/cm loop and 0.49±0.03 µL/min/cm loop, respectively. Further, the dose excreted in data set [2] (bile + intestine, up to 120 min, read-out: Recovery of [14C]uric acid, Bile+Intestine) came to 9.58%; in data set [2] (bile, up to 120 min, read-out: Recovery of [14C]uric acid, Bile) it was 0.68%; in data set [2] (urine, up to 120 min, read-out: Recovery of [14C]uric acid, Urine), 42.6%. Further, in data set [2] (iv 2 µCi/rat, 2 hrs after administration, rough estimation from distribution volume and plasma concentration), the “Recovery of [14C]uric acid, Cp×Vd (remaining in the body)” value was 4.55%. In addition, the “Recovery of [14C]uric acid, Intestine (luminal contents)” value in data set [2] (iv 2 µCi/rat, up to 120 min) came to 8.90%. The “Recovery of [14C]uric acid, Urine” value in data set [2] (iv 2 µCi/rat, up to 120 min) amounted to 42.58%. Further, the “CLintestine, estimated (total intestinal secretory clearance)” value in data set [3] (from closed loop clearance and intestinal length) is recorded as 0.15 mL/min. The CL renal in data set [3] (male, Wistar, rat, urine (relative to plasma AUC), up to 60 min, amount excreted / plasma AUC, read-out: CLrenal of endogenous uric acid) is 0.5 ± 0.06 mL/min. The “CLbile of endogenous uric acid” value in data set [3] (up to 60 min, amount excreted / plasma AUC) is 0.02 mL/min and 0.02 ± 0.002 mL/min. Moreover, the “Secretory versus absorptive transport of uric acid” value at rMdr1a is “no significant difference”.
